From patent US20110280940A1, “Di-Vanilloyl And Tri-Vanilloyl Derivatives For Use In Anti-Cancer Therapy” (priority 2008, published 2011)
Read-outs that look alike come from different tables or passages of the source.

Tests used:
VM48 melanoma cells = test: MTT colorimetric assay, overall cell growth, VM48; type: cell-based, human; details: Homo sapiens, read-out: In Vitro IC50 Growth Inhibitory Values, VM48
Aurora B kinase = biological target: T1, Aurora B kinase (Homo sapiens, UniProt Q96GD4); test: Radiometric protein kinase assay (33 PanQinase), Aurora B; type: biochemical; details: for IC50: dose-response 0-100 μM, n=3, read-out: IC50: Concentration of drug needed in order to inhibit kinase activity by 50%, AurB; for inhibition at 57 µM: read-out: inhibition of Aurora B activity
T1 construct: made in house
Method: (§1) Note that at a concentration of 20 μM of the DLT compounds, the activity of the three Aurora kinases is reduced by approximately 40-50%, whereas at concentrations of 50 μM, i.e. the concentration used in the anti-proliferation assays of example 2B, the activity of said kinases is reduced by 60-75%.
(§2) The kinase inhibition profile of DLT95-Cl at 20 μM was determined using 255 protein kinases. Residual activity values were measured by testing each compound at one concentration in duplicate in each kinase assay. A radiometric protein kinase assay (33 PanQinase®Activity Assay) was used for measuring the kinase activity of 250 protein kinases. All kinase assays were performed in 96-well flashPlates™ from Perkin Elmer (Boston, Mass., USA) in a 50 μl reaction volume. The reaction cocktail was pipetted in 4 steps in the following order: • 10 μl of non-radioactive ATP solution (in H2O) • 25 μl of assay buffer/[γ-33P]-ATP mixture • 5 μl of test sample in 10% DMSO • 10 μl of enzyme/substrate mixture
(§3) The assay for all enzymes contained 60 mM HEPES-NaOH, pH 7.5, 3 mM MgCl2, 3 mM MnCl2, 3 μM Na-orthovanadate, 1.2 mM DTT, 50 μg/ml PEG20000, 1 μM ATP/[γ-33P]-ATP (approx. […] per well), protein kinase, and substrate. All PKC assays (except the PKC-mu and the PKC-nu assay) additionally contained 1 mM CaCl2, 4 mM EDTA, 5 μg/ml Phosphatidylserine and 1 μg/ml 1,2-Dioleyl-glycerol. The MYLK2, CAMK1D, CAMK2A, CAMK2B, CAMK2D, CAMK4, CAMKK2, DAPK2 and EEF2K assays additionally contained 1 μg/ml Calmodulin and 0.5 mM CaCl2. The PRKG1 and PRKG2 assays additionally contained 1 μM cGMP.
(§4) The protein kinases were expressed either in Sf9 insect cells or in E. coli as recombinant GST-fusion proteins or as His-tagged proteins. All kinases were produced from human cDNAs. Kinases were purified by affinity chromatography using either GSH-agarose (Sigma) or Ni-NTH-agarose (Qiagen). The purity of the protein kinases was examined by SDS-PAGE/coomassie staining. The identity of the protein kinases was checked by mass spectroscopy.
(§5) The reaction cocktails were incubated at 30° C. for 60 minutes. The reaction was stopped with 50 μl of 2% (v/v) H3PO4, plates were aspirated and washed two times with 200 μl 0.9% (w/v) NaCl. All assays were performed with a BeckmanCoulter Biomek 2000/SL robotic system.
(§6) Incorporation of ^33Pi (counting of “cpm”) was determined with a microplate scintillation counter (Microbeta, Wallac).
(§7) For each kinase, the median value of the cpm of three wells with complete reaction cocktails, but without kinase, was defined as “low control” […]. This value reflects unspecific binding of radioactivity to the plate in the absence of protein kinase but in the presence of the substrate. Additionally, for each kinase the median value of the cpm of three other wells with the complete reaction cocktail, but without any compound, was taken as the “high control”, i.e. full activity in the absence of any inhibitor […]. The difference between high and low control of was taken as 100% activity for each kinase. As part of the data evaluation the low control value of each kinase was subtracted from the high control value as well as from their corresponding “compound values”. The residual activity (in %) for each compound well was calculated by using the following formula: Res. Activity (%)=100×[(cpm of compound−low control)/(high control−low control)]

Aurora C kinase = biological target: T2, Aurora C kinase (Homo sapiens, UniProt Q9UQB9); test: Radiometric protein kinase assay (33 PanQinase), Aurora C; type: biochemical; details: for IC50: dose-response 0-100 μM, n=3, read-out: IC50: Concentration of drug needed in order to inhibit kinase activity by 50%, AurC; for inhibition at 57 µM: read-out: inhibition of Aurora C activity
T2 construct: made in house
T2 sequence (Q9UQB9 1-309): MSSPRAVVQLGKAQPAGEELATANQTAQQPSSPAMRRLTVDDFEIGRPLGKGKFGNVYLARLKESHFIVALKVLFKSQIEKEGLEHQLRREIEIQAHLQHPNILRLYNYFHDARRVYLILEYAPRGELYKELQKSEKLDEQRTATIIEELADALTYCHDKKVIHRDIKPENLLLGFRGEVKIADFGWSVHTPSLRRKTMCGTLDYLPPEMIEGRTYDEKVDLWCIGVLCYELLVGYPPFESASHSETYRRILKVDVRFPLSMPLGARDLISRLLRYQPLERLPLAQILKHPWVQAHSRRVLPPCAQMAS
Method: as §1, §2, §3, §4, §5, §6, §7

T1 sequence (Q96GD4 whole entry): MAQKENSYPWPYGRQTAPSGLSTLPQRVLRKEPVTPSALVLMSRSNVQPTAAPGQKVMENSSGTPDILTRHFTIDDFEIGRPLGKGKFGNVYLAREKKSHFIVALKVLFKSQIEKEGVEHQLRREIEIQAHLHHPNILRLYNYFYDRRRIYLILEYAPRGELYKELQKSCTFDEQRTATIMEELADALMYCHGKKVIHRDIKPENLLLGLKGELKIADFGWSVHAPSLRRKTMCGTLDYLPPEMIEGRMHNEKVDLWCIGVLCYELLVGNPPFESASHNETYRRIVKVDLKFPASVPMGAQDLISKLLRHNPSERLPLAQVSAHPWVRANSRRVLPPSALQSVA

| SMILES | IC50 (VM48 melanoma cells; MTT, 72 hours of incubation) [µM] | IC50 (Aurora B kinase) [µM] | IC50 (Aurora C kinase) [µM] | inhibition at 57 µM (Aurora B kinase) [%] | inhibition at 57 µM (Aurora C kinase) [%] | IC50 (VM48 melanoma cells; 72 h) [µM] |
| --- | --- | --- | --- | --- | --- | --- |
| COc1cc(C(=O)OCCCCCCOC(=O)c2ccc(O)c(OC)c2)ccc1O [DLT11, Hexane-1,6-diyl bis-(4-hydroxy-3-methoxybenzoate)] | 56 |  |  |  |  |  |
| COc1cc(C(=O)OCCOC(=O)c2ccc(O)c(OC)c2)ccc1O [DLT1, Ethane-1,2-diyl bis-(4-hydroxy-3-methoxybenzoate)] | 53 |  |  |  |  |  |
| COc1cc(C(=O)O)ccc1O [vanillic acid, reference compound] | > 1000 | > 100 | > 100 |  |  |  |
| COc1cc(C(=O)OCc2cc(COC(=O)c3ccc(O)c(OC)c3)cc(COC(=O)c3ccc(O)c(OC)c3)c2)ccc1O [DLT95, [3,5-bis[(4-hydroxy-3-methoxy-benzoyl)oxymethyl]phenyl]methyl 4-hydroxy-3-methoxy-benzoate] |  | 3.4 | 3.3 |  |  |  |
| O=C(OCc1cc(COC(=O)c2ccc(O)c(Cl)c2)cc(COC(=O)c2ccc(O)c(Cl)c2)c1)c1ccc(O)c(Cl)c1 [DLT95-Cl, [3,5-bis[(4-hydroxy-3-chloro-benzoyl)oxymethyl]phenyl]methyl 4-hydroxy-3-chloro-benzoate] |  | 0.9 | 1.8 | ≥ 50 | ≥ 50 | 32 |
| O=C(OCc1cc(COC(=O)c2ccc(O)c(F)c2)cc(COC(=O)c2ccc(O)c(F)c2)c1)c1ccc(O)c(F)c1 [DLT95-F, [3,5-bis[(4-hydroxy-3-fluoro-benzoyl)oxymethyl]phenyl]methyl 4-hydroxy-3-fluoro-benzoate] |  | 2.4 | 4.7 | ≥ 50 | ≥ 50 | 61 |
